Some results are limits rather than exact numbers.

The data set is described as follows: Acute toxicity, single oral administration to mice. The note with it: mouse, in vivo, p.o. The text has this: Moreover, the Table contains data concerning the acute toxicity, that is, LD50 in mg/kg in the case of single oral administration to mice.
In general, LD50 refers to the dose expected to kill half of the subjects tested. A lower LD50 goes with a more toxic substance. The molecule `COc1ccc(C(=O)N2CCC(O)C2=O)cc1O` (racemic) [R,S, (R,S)-1-(3-hydroxy-4-methoxybenzoyl)-3-hydroxy-2-pyrrolidinone] registered an LD50 above 5000 mg/kg.

With `COc1ccc(C(=O)N2CC[C@@H](O)C2=O)cc1O` [R, (R)-1-(3-hydroxy-4-methoxybenzoyl)-3-hydroxy-2-pyrrolidinone], the median lethal dose (LD50) is above 5000 mg/kg.

Regarding `COc1ccc(C(=O)N2CC[C@H](O)C2=O)cc1O` [S, (S)-1-(3-hydroxy-4-methoxybenzoyl)-3-hydroxy-2-pyrrolidinone], the LD50 was above 4000 mg/kg.

Source of the values: US4452807A, “(R,S)-1-(3-Hydroxy-4-methoxybenzoyl)-3-hydroxy-2-pyrrolidinone intermediates therefor and use for treating cerebral insufficiency” (Hoffmann-La Roche Inc., priority 1981, dated 1984).
